Test results from patent publication US5916908A, “Pharmaceutical pyrazole compositions useful as inhibitors of protein kinases” (COR Therapeutics, Inc., priority 1995, dated 1999).
pIC50: −log10 of the molar value. Read-outs that look alike come from different tables or passages of the source.

Assays:
human alpha PDGFR = molecular target: T1, human alpha PDGFR (Homo sapiens, UniProt P16234); assay: alpha PDGFR autophosphorylation in 32D-αR cells; type: cell-based; conditions: for inhibition of protein kinase activity of αPDGFR: compounds of Table 1B, evaluated similar to Example 1
T1 construct: expressed in transfected cells; host or cells: 32D-αR (mouse hematopoietic cell line 32D)
Source text: The stimulation of cell proliferation by growth factors such as PDGF, FGF and EGF is dependent upon their induction of autophosphorylation of each of their respective receptor's tyrosine kinases. Therefore, the ability of a PTK inhibitor to block cellular proliferation induced by these growth factors is directly correlated with its ability to block receptor autophosphorylation. To measure alpha PDGFR autophosphorylation a previously described mouse hematopoietic cell line, 32D-αR, which had been engineered to overexpresses the human alpha PDGFR was used. These cells were grown in suspension to 10^6 cells/ml in RPMI (Gibco BRL) media containing 10% fetal bovine serum and 5% WEHI conditioned media (tissue culture media conditioned by WEHI cells available from ATCC) as previously described. The cells were pelleted by low speed centrifugation and resuspended in serum-free RPMI prior to distribution at 500,000 cells/well in 96 well conical bottom microtiter plates (Falcon). Compounds (0.01-30 μM) were added to the wells at room temperature 15 minutes prior to the addition of PDGF AA (15 ng/ml) and the incubation was continued on ice for 90 minutes in a final incubation volume of 100 μl. The cells were then pelleted at 2000 rpm for 10 minutes at 4° C. and 50 μl of freshly prepared lysis buffer (20 mM Tris at pH 7.3, 150 mM NaCl, 1% Triton X-100, 1 mM phenylmethyl-sulfonyl fluoride (PMSF), 1 mM sodium orthovanadate, […] and 10 mg/ml leupeptin) was added directly to each well, incubation was continued for 10 minutes on ice and cell lysis was facilitated by vigorous agitation on a plate shaker. The cell lysates were cleared by centrifugation at 2,000 rpm for 10 minutes prior to analysis.
In a separate microtiter plate, monoclonal antibodies (prepared at COR Therapeutics, Inc.) directed against the extracellular domain of the alpha PDGFR (MAb αR10) or the beta PDGFR (MAb 1B5B11) were immobilized by incubating 0.5 μg of antibody per well at 4° C. for 18 hours in 23 mM Tris at pH 8.0, 68 mM NaCl, 14 mM ammonium bicarbonate and 0.01% sodium azide. Unbound antibody was removed and the wells were blocked with 25 mM N-(2-hydroxyethyl)piperazine-N'-(2-ethanesulfonic acid) (HEPES) pH 7.6, 100 mM NaCl, and 0.2% Tween 20 just prior to the addition of cell lysate that had been diluted 1:2 in binding buffer (blocking buffer with 0.3% gelatin). 32D-αR or HR5-βR cell lysate was incubated with immobilized MAb αR10 or MAb 1B5B11, respectively, for 2 hours at room temperature and wells were washed 3 times with 200 μl of wash buffer (phosphate buffered saline "PBS", 0.01% Tween 20). […] Product formation was monitored at 650 nm using a microtiter plate reader (Molecular Devices).

human FGFR-1 = molecular target: T2, human FGFR-1 (Homo sapiens, UniProt P11362); assay: FGFR-1 autophosphorylation in CHO cells; type: cell-based
T2 construct: expressed in transfected cells; host or cells: CHO
Procedure: In order to measure FGFR-1 autophosphorylation, the human FGFR-1 cDNA was stably over-expressed in CHO cells using standard techniques. These cells were grown to confluency in RPMI with 10% fetal bovine serum, the media was replaced with serum-free RPMI and incubation continued for 18 hours prior to stimulation with βFGF (75 ng/ml) for 10 min. at 37° C. in the absence or presence of PTK inhibitors in a concentration range of 0.1-30 μM. Cell lysates were prepared under the same conditions as described above for the EGFR assay. Lysates were incubated with a monoclonal antibody directed against the FGFR-1 extracellular domain (MAb 1H9D3 which was prepared at COR) and the immunoprecipitated receptor was subjected to SDS-PAGE and Western blot analysis with 4G10 horse radish peroxidase conjugated antiphosphotyrosine antibodies (UBI) and detection was done by chemiluminescence (Amersham).

32D-αR cells = assay: PDGF induced proliferation ([3H]thymidine incorporation) in 32D-αR cells; type: cell-based; conditions: Mus musculus
Procedure: Briefly, 32D-αR cells were grown in interleukin 3 (IL-3)-conditioned RPMI media with 10% fetal bovine serum and washed 2 times with RPMI with 10% fetal bovine serum, resuspended at 5×10^5 cells/ml in the same media and then dispensed at 250 μl/well in 24 well plates (Falcon). […] The cells were incubated for 43 hours followed for a further 3 hour incubation with [^3 H]thymidine (10 μCi/well). The cells are then harvested with an automated cell harvester, filters are placed in liquid scintillation mixture and counted in a β counter.

CCD18 cells = assay: inhibition of cell proliferation under normal tissue culture conditions, CCD18; type: cell-based; conditions: Homo sapiens, 96 h, read-out: IC50 CCD18
src-kinase = src-kinase (Homo sapiens, UniProt P12931); assay: inhibition of recombinant c-src kinase; conditions: for potency on src kinase activity compared with PDGFR kinase activity: src vs PDGFR
Protein Kinase A (PKA) = Protein Kinase A (PKA) (Homo sapiens, UniProt P17612); assay: Protein Kinase A assay (non-radioactive)
Protein Kinase C (PKC) = assay: Protein Kinase C assay (non-radioactive); conditions: 40 μM
human beta PDGFR = human beta PDGFR (Homo sapiens, UniProt P09619); assay: beta PDGFR autophosphorylation in HR5-βR cells; conditions: for inhibition of protein kinase activity of βPDGFR: compounds of Table 1B, evaluated similar to Example 1
WS1 cells = assay: inhibition of cell proliferation under normal tissue culture conditions, WS1; conditions: Homo sapiens, WS1, 96 h, read-out: IC50 WS1
HS27 cells = assay: inhibition of cell proliferation under normal tissue culture conditions, HS27; conditions: Homo sapiens, HS27, 96 h, read-out: IC50 HS27
HS68 cells = assay: inhibition of cell proliferation under normal tissue culture conditions, HS68; conditions: Homo sapiens, Hs68, 96 h, read-out: IC50 HS68
HR5-βR cells = assay: inhibition of cell proliferation under normal tissue culture conditions, HR5-βR; conditions: for pIC50: Cricetulus griseus
Procedure: The effect of these compounds on normal cell growth was also evaluated with HR5-βR cells which were previously used to measure beta PDGFR autophosphorylation.

[1] = tested on: human cell lines (HS68, HS 27, CCD18, WS1); assay: inhibition of proliferation of human cell lines under standard tissue culture conditions (collective statement)
EGFR = EGFR (Homo sapiens, UniProt P00533); assay: EGFR autophosphorylation in MDA MB 468 cells; type: cell-based; conditions: EGF 100 ng/ml
Sequence of EGFR (P00533 25-1210): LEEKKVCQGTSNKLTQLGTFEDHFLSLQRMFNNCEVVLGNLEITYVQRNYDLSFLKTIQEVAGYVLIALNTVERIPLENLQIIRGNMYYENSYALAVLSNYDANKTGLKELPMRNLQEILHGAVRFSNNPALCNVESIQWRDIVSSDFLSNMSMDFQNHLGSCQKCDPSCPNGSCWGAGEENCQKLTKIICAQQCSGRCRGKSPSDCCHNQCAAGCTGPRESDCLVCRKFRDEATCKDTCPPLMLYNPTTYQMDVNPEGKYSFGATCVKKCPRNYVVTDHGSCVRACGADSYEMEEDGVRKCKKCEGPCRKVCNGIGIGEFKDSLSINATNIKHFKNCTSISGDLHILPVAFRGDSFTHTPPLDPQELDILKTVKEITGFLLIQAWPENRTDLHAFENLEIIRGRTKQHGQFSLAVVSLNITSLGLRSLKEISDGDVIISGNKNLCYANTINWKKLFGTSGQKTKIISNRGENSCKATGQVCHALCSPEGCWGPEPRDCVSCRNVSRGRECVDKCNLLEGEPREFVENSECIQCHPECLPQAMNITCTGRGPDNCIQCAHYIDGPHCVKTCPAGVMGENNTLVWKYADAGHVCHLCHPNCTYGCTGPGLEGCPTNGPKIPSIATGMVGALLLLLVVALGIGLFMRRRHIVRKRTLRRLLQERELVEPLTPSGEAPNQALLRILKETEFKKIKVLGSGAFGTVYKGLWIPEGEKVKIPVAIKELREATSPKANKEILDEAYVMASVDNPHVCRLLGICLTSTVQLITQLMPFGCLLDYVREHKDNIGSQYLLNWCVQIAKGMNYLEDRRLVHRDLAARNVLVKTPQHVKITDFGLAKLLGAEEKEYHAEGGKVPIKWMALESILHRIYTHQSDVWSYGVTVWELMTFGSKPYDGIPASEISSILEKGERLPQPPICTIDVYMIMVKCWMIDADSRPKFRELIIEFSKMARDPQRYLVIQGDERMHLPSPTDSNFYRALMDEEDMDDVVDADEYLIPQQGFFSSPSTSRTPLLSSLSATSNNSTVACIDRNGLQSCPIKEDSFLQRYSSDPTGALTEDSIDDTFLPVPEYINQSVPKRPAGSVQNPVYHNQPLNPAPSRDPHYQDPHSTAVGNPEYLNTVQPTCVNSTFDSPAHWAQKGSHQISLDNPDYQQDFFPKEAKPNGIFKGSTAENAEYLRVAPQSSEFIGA
Procedure: These cells were grown to confluency in 6-well plates and incubated in serum-free Dulbecco's Modified Eagle Medium (DMEM) 18 hours. The cells were exposed to various concentrations (0.01-30 μM) of compounds for 15 minutes and then to EGF (100 ng/ml) for 10 minutes at 37° C. The cells were scraped and lysates were prepared in the same buffer as described for 32D-αR cells prior to fractionation by conventional SDS PAGE followed by Western blot analysis. For this, proteins were transferred onto nitrocellulose and the membrane was blocked in Tris buffer saline (TBS), pH 7.0, 0.1% Tween 20, 5% dry milk. The membrane was blotted with anti-phosphotyrosine antibody (UBI, 1 μg/ml) in binding buffer (TBS, 0.1% Tween 20; 1% dry milk) for 2 hours at room temperature. Detection was performed using a goat anti-rabbit-horseradish peroxidase conjugated IgG (Boehringer Mannheim). The blot was developed using a chemiluminescent system (Amersham).

T1 sequence (P16234 24-1089): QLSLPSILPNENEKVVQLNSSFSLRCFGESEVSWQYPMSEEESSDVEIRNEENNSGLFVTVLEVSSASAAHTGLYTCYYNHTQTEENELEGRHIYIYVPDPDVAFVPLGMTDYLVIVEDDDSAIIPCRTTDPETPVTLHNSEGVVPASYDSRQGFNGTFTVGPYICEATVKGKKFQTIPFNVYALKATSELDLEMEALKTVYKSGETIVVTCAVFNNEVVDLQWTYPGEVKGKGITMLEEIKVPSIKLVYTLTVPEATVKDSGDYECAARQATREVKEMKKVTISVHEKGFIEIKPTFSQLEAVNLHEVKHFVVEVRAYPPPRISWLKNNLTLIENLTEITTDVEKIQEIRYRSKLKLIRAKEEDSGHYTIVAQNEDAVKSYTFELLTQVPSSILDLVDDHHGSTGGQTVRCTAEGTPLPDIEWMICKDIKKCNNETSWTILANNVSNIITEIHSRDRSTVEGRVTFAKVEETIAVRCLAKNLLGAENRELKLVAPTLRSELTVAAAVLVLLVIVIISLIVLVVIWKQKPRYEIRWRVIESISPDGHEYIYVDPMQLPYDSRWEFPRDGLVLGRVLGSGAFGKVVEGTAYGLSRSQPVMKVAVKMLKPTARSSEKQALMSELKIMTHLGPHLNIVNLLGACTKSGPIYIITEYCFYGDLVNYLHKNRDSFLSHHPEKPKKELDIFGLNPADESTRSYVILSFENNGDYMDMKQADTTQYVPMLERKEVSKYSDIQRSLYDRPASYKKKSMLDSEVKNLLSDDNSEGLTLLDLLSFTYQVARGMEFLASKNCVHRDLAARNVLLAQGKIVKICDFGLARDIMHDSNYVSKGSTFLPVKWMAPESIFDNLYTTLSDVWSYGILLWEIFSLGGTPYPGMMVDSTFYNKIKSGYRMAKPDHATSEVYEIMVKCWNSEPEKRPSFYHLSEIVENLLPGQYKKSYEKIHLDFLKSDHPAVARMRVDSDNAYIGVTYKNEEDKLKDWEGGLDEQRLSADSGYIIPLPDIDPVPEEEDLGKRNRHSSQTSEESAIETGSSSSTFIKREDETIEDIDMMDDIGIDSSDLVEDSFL
Sequence of human beta PDGFR (P09619 33-1106): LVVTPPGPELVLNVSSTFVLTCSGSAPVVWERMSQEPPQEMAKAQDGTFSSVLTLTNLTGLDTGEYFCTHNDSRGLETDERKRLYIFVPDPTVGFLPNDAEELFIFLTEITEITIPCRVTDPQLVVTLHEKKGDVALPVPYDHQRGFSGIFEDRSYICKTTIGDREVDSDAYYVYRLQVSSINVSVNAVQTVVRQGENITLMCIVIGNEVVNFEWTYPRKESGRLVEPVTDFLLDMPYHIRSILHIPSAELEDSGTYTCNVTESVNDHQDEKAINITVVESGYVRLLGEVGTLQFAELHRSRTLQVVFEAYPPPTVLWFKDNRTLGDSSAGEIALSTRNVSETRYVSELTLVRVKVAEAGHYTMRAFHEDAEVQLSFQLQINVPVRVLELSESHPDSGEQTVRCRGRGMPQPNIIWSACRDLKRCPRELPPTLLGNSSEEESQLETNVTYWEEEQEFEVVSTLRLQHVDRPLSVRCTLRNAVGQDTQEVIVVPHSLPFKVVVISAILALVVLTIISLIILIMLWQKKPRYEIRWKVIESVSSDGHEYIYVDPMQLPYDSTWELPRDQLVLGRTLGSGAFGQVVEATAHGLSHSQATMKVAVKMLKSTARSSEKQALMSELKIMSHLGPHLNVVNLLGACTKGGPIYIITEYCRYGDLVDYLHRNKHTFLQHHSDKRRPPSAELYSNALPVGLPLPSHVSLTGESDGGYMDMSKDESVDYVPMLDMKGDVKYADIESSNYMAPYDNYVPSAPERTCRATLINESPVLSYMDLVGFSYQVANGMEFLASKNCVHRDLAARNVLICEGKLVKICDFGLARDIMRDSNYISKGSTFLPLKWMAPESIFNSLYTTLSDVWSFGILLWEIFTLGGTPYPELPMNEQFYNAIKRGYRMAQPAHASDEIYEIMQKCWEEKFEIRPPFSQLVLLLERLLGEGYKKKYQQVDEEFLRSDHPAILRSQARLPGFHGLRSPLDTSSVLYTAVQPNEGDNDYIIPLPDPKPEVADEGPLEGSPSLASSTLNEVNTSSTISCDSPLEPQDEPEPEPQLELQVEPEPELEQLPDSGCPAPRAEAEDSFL
Sequence of src-kinase (P12931 whole entry): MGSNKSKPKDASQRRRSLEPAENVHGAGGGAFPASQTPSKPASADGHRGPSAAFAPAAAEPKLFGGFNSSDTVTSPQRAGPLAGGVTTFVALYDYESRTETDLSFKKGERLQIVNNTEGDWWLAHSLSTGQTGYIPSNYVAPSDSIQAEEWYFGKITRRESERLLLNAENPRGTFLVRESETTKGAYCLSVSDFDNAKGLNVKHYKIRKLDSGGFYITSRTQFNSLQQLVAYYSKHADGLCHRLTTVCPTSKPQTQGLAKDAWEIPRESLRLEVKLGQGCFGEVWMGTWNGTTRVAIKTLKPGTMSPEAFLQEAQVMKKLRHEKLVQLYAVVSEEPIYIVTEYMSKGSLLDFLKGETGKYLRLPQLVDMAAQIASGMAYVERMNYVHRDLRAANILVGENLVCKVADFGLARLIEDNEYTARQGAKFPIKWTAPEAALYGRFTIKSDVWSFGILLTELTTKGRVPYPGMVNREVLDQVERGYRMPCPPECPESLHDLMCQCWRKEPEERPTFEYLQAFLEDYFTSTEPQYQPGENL
T2 sequence (P11362 22-822): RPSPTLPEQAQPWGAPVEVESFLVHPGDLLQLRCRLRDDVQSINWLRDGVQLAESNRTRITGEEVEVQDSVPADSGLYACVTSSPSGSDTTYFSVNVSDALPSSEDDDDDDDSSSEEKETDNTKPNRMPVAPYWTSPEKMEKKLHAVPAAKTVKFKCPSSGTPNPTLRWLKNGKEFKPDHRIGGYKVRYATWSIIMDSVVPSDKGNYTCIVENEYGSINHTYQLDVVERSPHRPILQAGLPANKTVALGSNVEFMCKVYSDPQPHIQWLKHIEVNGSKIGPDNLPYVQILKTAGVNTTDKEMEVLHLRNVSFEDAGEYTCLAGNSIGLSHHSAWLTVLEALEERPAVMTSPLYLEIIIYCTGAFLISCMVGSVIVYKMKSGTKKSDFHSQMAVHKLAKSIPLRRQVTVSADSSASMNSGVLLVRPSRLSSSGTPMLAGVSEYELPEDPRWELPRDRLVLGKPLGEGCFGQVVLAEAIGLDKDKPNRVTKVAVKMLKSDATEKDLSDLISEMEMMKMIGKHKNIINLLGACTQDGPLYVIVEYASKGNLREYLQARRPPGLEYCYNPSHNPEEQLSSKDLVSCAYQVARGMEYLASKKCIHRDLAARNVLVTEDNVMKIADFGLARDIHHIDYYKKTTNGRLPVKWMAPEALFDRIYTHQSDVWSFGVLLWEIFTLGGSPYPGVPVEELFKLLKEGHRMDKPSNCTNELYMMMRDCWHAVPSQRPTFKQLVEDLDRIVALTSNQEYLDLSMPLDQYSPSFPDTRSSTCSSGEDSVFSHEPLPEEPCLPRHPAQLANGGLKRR

In the case of `O=C(Nc1cc(-c2ccccc2)[nH]n1)c1ccccc1` [Compound 1, 3-benzoylamino-5-phenylpyrazole], the pIC50 (human alpha PDGFR; Table 2, autophosphorylation, 32D-αR cells, PDGF AA 15 ng/ml, read-out: IC50 αPDGFR) was 6.77, the “inhibition of alpha PDGFR autophosphorylation” value (human alpha PDGFR; compared with beta receptor) was “inhibit alpha PDGFR autophosphorylation over the same concentration range as that observed for the beta receptor” and the pIC50 (human FGFR-1; Table 2, autophosphorylation, CHO cells, βFGF 75 ng/ml) was < 4.52. For the same compound, the “inhibition of FGFR-1 autophosphorylation” value (human FGFR-1; concentrations as high as 30 μM) was “no detectable inhibition”, the pIC50 (32D-αR cells; read-out: concentration blocking PDGF induced thymidine incorporation by 50%) was 6.15 and the IC100 (32D-αR cells; PDGF AA 30 ng/ml, FIG. 2, read-out: concentrations at which mitogenicity was completely inhibited) was > 1 µM. For the same compound, the pIC50 (CCD18 cells) was < 4.52, the pIC50 (src-kinase) was 5.10 and the “potency on src kinase activity compared with PDGFR kinase activity” value (“potency … compared with PDGFR kinase activity” below) (src-kinase) was “selective for inhibiting PDGFR kinase activity”. The pIC50 (Protein Kinase A (PKA)) was < 4.40, the inhibition at 40 µM (Protein Kinase A (PKA); read-out: reduction in PKA activity) was < 50% and the “reduction in PKC activity” value (Protein Kinase C (PKC)) was < 50%. The pIC50 (human beta PDGFR) was 6.66, the IC (maximal) (human beta PDGFR; read-out: concentration at which inhibition of beta PDGFR autophosphorylation was maximal) was 5 µM and the pIC50 (WS1 cells) was < 4.52. For the same compound, the pIC50 (HS27 cells) was < 4.52, the pIC50 (HS68 cells) was < 4.52 and the pIC50 (HR5-βR cells; 96 h, read-out: IC50 HRS-βR) was 4.55. For the same compound, the inhibition at 30 µM ([1]; Homo sapiens, 96 h, read-out: decrease in cell growth of human cell lines) was 10 to 20% and the “decrease in cell growth of human cell lines” value ([1]; concentrations up to 10 μM) was “no decrease in cell growth”.

With `O=C(Nc1cc(-c2ccc(Cl)cc2)n[nH]1)c1ccccc1` [Compound 45] the “inhibition of protein kinase activity of αPDGFR” value (human alpha PDGFR) was “exhibited the best activities” and the “inhibition of protein kinase activity of βPDGFR” value (human beta PDGFR) was “exhibited the best activities”.

In the case of `CN[C@@H]1C[C@H]2O[C@@](C)([C@@H]1OC)n1c3ccccc3c3c4c(c5c6ccccc6n2c5c31)C(=O)NC4` [Staurosporin, reference compound], the “potency … compared with PDGFR kinase activity” value (src-kinase) was “equally or more potent at inhibiting src kinase activity as they are PDGFR kinase activity” and the “growth of all of the human cell lines” value ([1]; 0.01 μM) was “completely blocked”.

In the case of `O=C(Nc1cc(-c2cccs2)n[nH]1)c1ccccc1` [Compound 46], the “inhibition of protein kinase activity of αPDGFR” value (human alpha PDGFR) was “exhibited the best activities” and the “inhibition of protein kinase activity of βPDGFR” value (human beta PDGFR) was “exhibited the best activities”.

For `COC(=O)[C@@]1(O)C[C@H]2O[C@]1(C)n1c3ccccc3c3c4c(c5c6ccccc6n2c5c31)C(=O)NC4` [Compound K252a], the pIC50 (EGFR) was 6.00, the pIC50 (src-kinase; read-out: IC50 src-kinase, recombinant c-src, 50 μM ATP) was 7.70 and the pIC50 (src-kinase; read-out: src kinase IC50, recombinant c-src) was 7.70. The “potency … compared with PDGFR kinase activity” value (src-kinase) was “equally or more potent at inhibiting src kinase activity as they are PDGFR kinase activity”, the “HR5-βR growth inhibition compared with inhibition of PDGFR phosphorylation” value (HR5-βR cells) was “lower concentrations than those required to inhibit PDGFR phosphorylation” and the pIC50 (HR5-βR cells; 96 h, read-out: IC50 HRS-βR) was 6.89. The pIC50 (HR5-βR cells; read-out: IC50 HR5-βR cell growth) was 6.89.
